8 compounds from PubChem BioAssay (NCI) can be followed below.

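Interpolation was linear, between the two tested concentrations surrounding the appropriate level; five concentrations were tested over 48 hours in 96-well plates. Here, GI50 denotes the concentration required for 50% inhibition of growth. The concentration for full growth arrest is given as TGI.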

Some test systems named below: 786-0 renal; MDA-MB-435; NCI-H226 lung; U251 CNS; OVCAR-4 ovarian; SF-268 CNS; A549 NSCLC; SF-539 CNS; HOP-92 NSCLC; HOP-62 NSCLC.
Experiment in all cases: NCI tumour cell line growth inhibition, 48 h

`O=C1C2C(C(=O)[N]1[Hg][c]1cccs1)C1(Cl)C(Cl)=C(Cl)C2(Cl)C1(Cl)Cl` (configuration not stated): the GI50 in the test on 786-0 renal was 0.67 µM; with MDA-MB-435 it was 1.47 µM; in the test on NCI-H226 lung it was 6.88 µM; with U251 CNS it was 0.466 µM; in the test on OVCAR-4 ovarian it was 1.24 µM; in the test with SF-268 CNS it was 1.41 µM. The GI50 was 5.94 µM in the test on A549 NSCLC, 2.08 µM in the test on SF-539 CNS, 1.58 µM in the test with HOP-92 NSCLC and 2.52 µM with HOP-62 NSCLC. The TGI stood at 1.81 µM in the test on 786-0 renal; 3.05 µM with MDA-MB-435; 37.8 µM in the test on NCI-H226 lung; 1.68 µM in the test on U251 CNS; 2.51 µM in the test on OVCAR-4 ovarian; 2.84 µM with SF-268 CNS. Moreover, the TGI in the test with A549 NSCLC stood at 16.7 µM; in the test on SF-539 CNS it was 4.76 µM; in the test with HOP-92 NSCLC, 3.03 µM; in the test with HOP-62 NSCLC it was 6.84 µM.
`Fc1ccc(-c2nn3c(-c4ccc(F)c(Cl)c4)nnc3s2)cc1`: the GI50 is 35.3 µM in the test with 786-0 renal; more than 50 µM in the test on MDA-MB-435; more than 50 µM in the test on NCI-H226 lung; 18.5 µM in the test with U251 CNS; 10.1 µM in the test on OVCAR-4 ovarian; 38.7 µM in the test on SF-268 CNS. For the same compound, the GI50 in the test with A549 NSCLC was 21.2 µM; in the test on SF-539 CNS, more than 50 µM; in the test on HOP-92 NSCLC it was 15.6 µM; in the test on HOP-62 NSCLC it was 27.5 µM. Moreover, the TGI in the test with 786-0 renal was more than 50 µM; in the test on MDA-MB-435 it was more than 50 µM; in the test with NCI-H226 lung, more than 50 µM; with U251 CNS, more than 50 µM; in the test with OVCAR-4 ovarian, 41 µM; with SF-268 CNS, more than 50 µM. Besides, the TGI in the test on A549 NSCLC, in the test with SF-539 CNS, with HOP-92 NSCLC and with HOP-62 NSCLC was more than 50 µM in each case.
For `CC1=C(/C=C/C(=O)O)C(C)(C)CCC1`, the TGI with 786-0 renal, with MDA-MB-435, in the test on NCI-H226 lung, in the test with U251 CNS, with OVCAR-4 ovarian and in the test on SF-268 CNS was more than 100 µM each time. Further, the TGI in the test with A549 NSCLC, with SF-539 CNS, in the test with HOP-92 NSCLC and in the test with HOP-62 NSCLC was more than 100 µM in each case.
Regarding `CC(=O)Nc1ccc(/C=C/C(=O)c2ccccc2)cc1`, the GI50 in the test with 786-0 renal is 23.9 µM; with MDA-MB-435, 17.4 µM; with NCI-H226 lung it was 27.9 µM; with U251 CNS, 4.61 µM; in the test with OVCAR-4 ovarian it was 17.2 µM; in the test on SF-268 CNS, 15.9 µM. The GI50 is 20.5 µM in the test with A549 NSCLC, 14 µM in the test with SF-539 CNS, 17.9 µM in the test with HOP-92 NSCLC and 14.8 µM in the test on HOP-62 NSCLC. Moreover, the TGI was 53.4 µM with 786-0 renal; 50.5 µM in the test on MDA-MB-435; more than 100 µM with NCI-H226 lung; 17.7 µM in the test on U251 CNS; 45.1 µM in the test on OVCAR-4 ovarian; 37.5 µM with SF-268 CNS. Also, the TGI with A549 NSCLC turned out to be 45.4 µM; in the test with SF-539 CNS, 32.9 µM; in the test on HOP-92 NSCLC, 51.1 µM; with HOP-62 NSCLC it was 29.3 µM.
As to `C/C=C/C/C=C/CCC(=O)[C@H]1O[C@H]1C(N)=O`, the GI50 in the test with 786-0 renal is 14.8 µM; with MDA-MB-435, 11.6 µM; in the test on NCI-H226 lung, 15.1 µM; in the test on U251 CNS, 14.5 µM; in the test on A549 NSCLC, 17.3 µM; in the test with HOP-92 NSCLC it was 10.8 µM. Moreover, in the test on HOP-62 NSCLC, the GI50 was 13 µM. The TGI in the test on 786-0 renal was determined as 36.1 µM; in the test with MDA-MB-435, 25 µM; with NCI-H226 lung, 40.6 µM; with U251 CNS, 28.3 µM; in the test on OVCAR-4 ovarian, 26.1 µM; in the test with SF-268 CNS, 39.3 µM. Further, the TGI with A549 NSCLC is 51.3 µM; with SF-539 CNS, 31.8 µM; with HOP-92 NSCLC, 26.3 µM; in the test with HOP-62 NSCLC, 28.2 µM.
As for `Nc1ccccc1-c1ccc([N+](=O)[O-])cc1`, the GI50 with 786-0 renal is 9.16 µM; with MDA-MB-435, 5.01 µM; in the test on NCI-H226 lung it was 33.6 µM; in the test with U251 CNS, 40.7 µM; with OVCAR-4 ovarian, 40.8 µM; with SF-268 CNS it was 12.9 µM. The GI50 with A549 NSCLC is 4.65 µM; with SF-539 CNS, 3.92 µM; in the test with HOP-92 NSCLC, 17.9 µM; in the test with HOP-62 NSCLC, more than 100 µM. The TGI in the test on 786-0 renal, in the test on MDA-MB-435, with NCI-H226 lung, in the test with U251 CNS, in the test with OVCAR-4 ovarian and with SF-268 CNS was more than 100 µM in each case. Moreover, the TGI in the test on A549 NSCLC is more than 100 µM; with SF-539 CNS, 63 µM; with HOP-92 NSCLC, 97.6 µM; in the test on HOP-62 NSCLC, more than 100 µM.
For the compound `Cc1ccc(NC(=O)Cc2ccc(/C=C/C(=O)c3ncc[nH]3)cc2)cc1`, the GI50 in the test on 786-0 renal was 4.28 µM; in the test with MDA-MB-435, 5.68 µM; with NCI-H226 lung, 9.59 µM; with U251 CNS, 1.59 µM; in the test on OVCAR-4 ovarian it was 10.4 µM; in the test with SF-268 CNS, 5.32 µM. The GI50 in the test on A549 NSCLC is 9.14 µM; in the test on SF-539 CNS, 4.77 µM; in the test on HOP-92 NSCLC it was 18.5 µM; with HOP-62 NSCLC it was 5.24 µM. The TGI in the test with 786-0 renal, in the test with MDA-MB-435, in the test with NCI-H226 lung, in the test with U251 CNS, in the test on OVCAR-4 ovarian and in the test on SF-268 CNS was more than 25 µM throughout. Besides, the TGI was more than 25 µM with A549 NSCLC, 14 µM with SF-539 CNS, more than 25 µM with HOP-92 NSCLC and 21.6 µM in the test on HOP-62 NSCLC.
Consider `N=C(N)c1ccc(OCCOCCOc2ccc(C(=N)N)cc2)cc1`, for which the GI50 with 786-0 renal was more than 100 µM; in the test on MDA-MB-435, 84.8 µM; in the test with NCI-H226 lung, more than 100 µM; in the test with U251 CNS, 77.6 µM; with OVCAR-4 ovarian, more than 100 µM; in the test with SF-268 CNS, 52 µM. Further, the GI50 in the test on A549 NSCLC was 40.1 µM; with SF-539 CNS, 35.3 µM; in the test on HOP-92 NSCLC, 74.6 µM; in the test with HOP-62 NSCLC, more than 100 µM. The TGI with 786-0 renal, with MDA-MB-435, in the test with NCI-H226 lung, in the test on U251 CNS, in the test with OVCAR-4 ovarian and with SF-268 CNS was more than 100 µM throughout. Further, the TGI with A549 NSCLC, with SF-539 CNS, with HOP-92 NSCLC and with HOP-62 NSCLC was more than 100 µM throughout.
